Source: PMC11002876, “KcsA-Kv1.x chimeras with complete ligand-binding sites provide improved predictivity for screening selective Kv1.x blockers” (The Journal of Biological Chemistry, 2024)
Like-named read-outs stand apart in the source and are kept apart here. Where a SMILES comes first, the peptide text is derived from it.

Assays:
[1] = molecular target: T1, KcsA-Kv1.1 T-only chimera (Streptomyces lividans, UniProt P0A334, A54E/A57S/G53E/G56E/I60S/L59F/P55A/Q58H/R52A/R64D/T61S/Y62I); assay: Phage-binding competition assay, KcsA-Kv1.1 T-only; set-up: species or system human Kv1.1 turret in Streptomyces lividans KcsA
T1 sequence (P0A334 1-160 R52A/G53E/A54E/P55A/G56E/A57S/Q58H/L59F/I60S/T61S/Y62I/R64D): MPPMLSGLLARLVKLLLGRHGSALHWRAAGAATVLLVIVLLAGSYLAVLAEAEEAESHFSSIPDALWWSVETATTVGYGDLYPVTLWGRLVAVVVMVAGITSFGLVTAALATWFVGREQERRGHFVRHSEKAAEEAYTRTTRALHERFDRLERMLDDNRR
Method: (§1) Phage stock solutions were diluted to working concentration with phage resuspension buffer supplemented with 2 mM DDM. For protein immobilization, the following amounts were used in a final volume of 50 μl/well: wt KcsA, 0.1 μg; KcsA-Kv1.1 T-only, 0.005 μg; KcsA-Kv1.1 T+F, 0.02 μg; KcsA-Kv1.2 T-only, 0.01 μg; KcsA-Kv1.2 T+F, 0.1 μg; KcsA-Kv1.3 T-only, 0.01 μg; and KcsA-Kv1.3 T+F, 0.1 μg. Protein samples were diluted in 50 μl of storage buffer (20 mM Tris pH8.0, 300 mM KCl, 2 mM DDM) and were added to the designated wells of a Pierce Clear, 96-Well Nickel Coated Plate (15442, Thermo Fisher Scientific), then incubated for 1 h at room temperature on a horizontal shaker at 130 rpm. The plate was blocked for 1 h at room temperature with 180 μl/well TBS-BSA supplemented with 1 mM DDM. Following blocking, the wells were washed 4× with washing buffer (300 μl TBS-Tween, 0.1% v/v) using a Wellwash Versa microplate washer (Thermo Fisher Scientific); then 50 μl phage solution (in TBS-BSA-Tween, 0.1% v/v, 2 mM DDM) at determined phage concentration was added to the wells and incubated for 1 h at room temperature on a horizontal shaker. The plate was washed 4× with washing buffer, then 50 μl anti-M13 IgG HRP (MA5-36125, Invitrogen) diluted to 1:2500 in TBS-Tween (0.1% v/v) was added to the wells and incubated for 1 h at room temperature. The plate was washed again 4× with 300 μl/well washing buffer. Finally, 50 μl/well 1-Step Ultra TMB-ELISA solution (34028, Thermo Fisher Scientific) was added to the wells, and the developing signal was stopped with 50 μl 1M HCl after 5 to 10 min. The light absorbance signal was read at 450 nm with Byonoy absorbance 96 plate reader (Byonoy GmbH).
(§2) For protein immobilization, the following amounts were used in a final volume of 50 μl/well: KcsA-Kv1.1 T-only, 0.005 μg; KcsA-Kv1.1 T+F, 0.01 μg; KcsA-Kv1.2 T-only, 0.025 μg; KcsA-Kv1.2 T+F, 0.0125 μg; KcsA-Kv1.3 T-only, 0.01 μg; and KcsA-Kv1.3 T+F, 0.1 μg. Protein samples were diluted in storage buffer. Binding of given concentrations of relevant ligand-displaying phages quantified by light absorbance ([…]) were investigated in a similar manner as in phage ELISA-binding assay, while different concentrations of competing toxin test substances were applied simultaneously. The results were converted to percent inhibitions (percent displacement) of the indicator phage binding, and relative affinities of the tested toxins were assessed by plotting percent displacements against log concentrations and determining half maximal inhibitory concentrations (IC50) by sigmoidal curve fitting using “Sigmoidal dose-response (variable slope) with least squares method” algorithm in GraphPad Prism 8 using the following equation: Y=Bottom+Top−Bottom/1+10^(LogEC50−×)⋅HillSlope

[2] = molecular target: T2, KcsA-Kv1.1 T-only chimera (Streptomyces lividans, UniProt P0A334, R52A/G53E/A54E/P55A/G56E/A57S/Q58H/L59F/I60S/T61S/Y62I/R64D); assay: Phage-binding competition assay, KcsA-Kv1.1 T-only; set-up: species or system human Kv1.1 turret in Streptomyces lividans KcsA; details: for competition binding to KcsA-Kv1.1 T-only, in words: ShK-phage competition, native peptide, Fig. 8E (ligand-binding pattern); for Rank, T-only chimera (Kv1.1): rank by competition IC50 among ShK, KTX1, MTX
T2 sequence (P0A334 1-160 R52A/G53E/A54E/P55A/G56E/A57S/Q58H/L59F/I60S/T61S/Y62I/R64D): T1 sequence (P0A334 1-160 R52A/G53E/A54E/P55A/G56E/A57S/Q58H/L59F/I60S/T61S/Y62I/R64D)
Method: as §1, §2

[3] = displacement of ShK-phage, KcsA-Kv1.1 T-only 0.005 μg/well on nickel-coated plate, mean ± SD (n = 3), NQ = not quantifiable, read-out: IC50, T-only chimera (Kv1.1)

SMILES	IC50 [1, 3] [nM]	competition binding to KcsA-Kv1.1 T-only, in words [2]	Rank, T-only chimera (Kv1.1) [2]	competition binding to KcsA-Kv1.1 T-only, in words ([2]; listed as MTX1)	IC50 ([1]; ShK-phage competition, T-only KcsA-Kv1.1, value given in figure, sigmoidal fit to means of three replicates, read-out: IC50 (Fig. 8E)) [nM]
CC[C@H](C)[C@H](NC(=O)[C@H](CCC(=O)O)NC(=O)[C@@H](NC(=O)CN)C(C)C)C(=O)N[C@@H](CC(N)=O)C(=O)N[C@H](C(=O)N[C@@H](CCCCN)C(=O)N[C@H]1CSSC[C@@H]2NC(=O)[C@H](CCCCN)NC(=O)CNC(=O)[C@H](Cc3ccccc3)NC(=O)[C@H](CCCNC(=N)N)NC(=O)[C@H](CCSC)NC(=O)CNC(=O)[C@H](C)NC(=O)[C@H](CC(=O)O)NC(=O)[C@H](CCCCN)NC(=O)[C@@H]3CSSC[C@@H](C(=O)N[C@H](C(=O)N4CCC[C@H]4C(=O)N[C@@H](CCCCN)C(=O)O)[C@@H](C)O)NC(=O)[C@H](Cc4c[nH]cn4)NC(=O)[C@H](CSSC[C@H](NC(=O)[C@H](CCC(N)=O)NC(=O)[C@@H]4CCCN4C(=O)[C@H](CO)NC(=O)CNC(=O)[C@H](CO)NC1=O)C(=O)N[C@@H](CC(C)C)C(=O)N[C@@H](CCCCN)C(=O)N1CCC[C@H]1C(=O)N3)NC(=O)[C@H](CCCCN)NC(=O)[C@H](CCCNC(=N)N)NC(=O)[C@H](CC(N)=O)NC(=O)[C@H](CCSC)NC2=O)C(C)C [KTX1, Kaliotoxin-1]	1.27	ShK > KTX1 > MTX	2	–	–
CC[C@H](C)[C@@H]1NC(=O)[C@@H]2CSSC[C@H](NC(=O)[C@H](CO)NC(=O)[C@@H](N)C(C)C)C(=O)N[C@@H]([C@@H](C)O)C(=O)NCC(=O)N[C@@H](CO)C(=O)N[C@@H](CCCCN)C(=O)N[C@@H](CC(=O)O)C(=O)N[C@@H](CSSC[C@@H](C(=O)N[C@@H](CCCCN)C(=O)N[C@H]3CSSC[C@@H](C(N)=O)NC(=O)CNC(=O)[C@H](Cc4ccc(O)cc4)NC3=O)NC(=O)[C@H](CO)NC(=O)[C@H](CCCCN)NC(=O)[C@H](CC(N)=O)NC1=O)C(=O)N[C@@H](Cc1ccc(O)cc1)C(=O)N[C@@H](C)C(=O)N1CCC[C@H]1C(=O)N[C@H]1CSSC[C@H](NC(=O)CNC(=O)[C@H]([C@@H](C)O)NC(=O)[C@H](CCC(N)=O)NC(=O)[C@H](CCCCN)NC(=O)[C@H](CCCNC(=N)N)NC1=O)C(=O)N1CCC[C@H]1C(=O)N[C@@H](CC(N)=O)C(=O)N[C@@H](C)C(=O)N[C@@H](CCCCN)C(=O)N2 [MTX, Maurotoxin] (HELM PEPTIDE1{V.S.C.T.G.S.K.D.C.Y.A.P.C.R.K.Q.T.G.C.P.N.A.K.C.I.N.K.S.C.K.C.Y.G.C.[am]}$PEPTIDE1,PEPTIDE1,3:R3-24:R3|PEPTIDE1,PEPTIDE1,9:R3-29:R3|PEPTIDE1,PEPTIDE1,13:R3-19:R3|PEPTIDE1,PEPTIDE1,31:R3-34:R3$$$V2.0; N-terminus and C-terminus assumed)	> 1000	ShK > KTX1 > MTX	3	negligible binding	–
CC[C@H](C)[C@@H]1NC(=O)[C@@H](NC(=O)[C@H](CO)NC(=O)[C@@H](N)CCCNC(=N)N)CSSC[C@@H](C(=O)O)NC(=O)[C@H]([C@@H](C)O)NC(=O)CNC(=O)[C@@H]2CSSC[C@@H]3NC(=O)[C@H](CCC(N)=O)NC(=O)[C@H](Cc4ccccc4)NC(=O)[C@H](C)NC(=O)[C@H]([C@@H](C)O)NC(=O)[C@H](CSSC[C@H](NC(=O)[C@H](Cc4ccccc4)NC(=O)[C@H](CO)NC(=O)[C@H](CC(C)C)NC(=O)[C@H](CCCNC(=N)N)NC(=O)[C@H](Cc4ccc(O)cc4)NC(=O)[C@H](CCCCN)NC(=O)[C@H](CCSC)NC(=O)[C@H](CO)NC(=O)[C@H](Cc4c[nH]cn4)NC(=O)[C@H](CCCCN)NC3=O)C(=O)N[C@@H](CCCNC(=N)N)C(=O)N[C@@H](CCCCN)C(=O)N[C@@H]([C@@H](C)O)C(=O)N2)NC(=O)[C@H](CCCNC(=N)N)NC(=O)[C@H](CO)NC(=O)[C@H](CCCCN)NC(=O)[C@@H]2CCCN2C(=O)[C@H]([C@@H](C)CC)NC(=O)[C@H]([C@@H](C)O)NC(=O)[C@H](CC(=O)O)NC1=O [ShK, Stichodactyla toxin]	–	ShK > KTX1 > MTX	1	–	0.317
